Laboratory results: US12606533B2, “3-phenylpropylamine derivative” (DAIICHI SANKYO COMPANY, LIMITED, priority 2023, dated 2026)

Experiments:
[1] = target: T1, SF-1 (Homo sapiens, UniProt Q13285); experiment: SF1 degradation induction in NCI-H295R SF-1-HiBiT cells (HiBiT DC50); format: cell-based; conditions: 24 hr, concentration that induces 50% degradation of SF-1
T1 construct: NCI-H295R SF-1-HiBiT cells with HiBiT tag knocked in at the endogenous SF1 locus; host or cells: NCI-H295R SF-1-HiBiT (knock-in at endogenous locus)
Protocol: NCI-H295R SF-1-HiBiT cells were seeded in a 384-well plate (Thermo Fisher Scientific Inc.) at 1×10^4 cells/50 μL/well and cultured at 37° C. in a 5% CO2 incubator for 24 hr. DMSO solutions of each compound were serially diluted with DMSO using a D300e Digital Dispenser (TECAN), added to a 384-well plate, and cultured in a 5% CO2 incubator at 37° C. for 24 hr. […] After completion of culture, the medium was discarded, and Nano-Glo (registered trade mark) HiBiT Lytic Detection System (Promega, Cat. No. N3040) was added at 20 μL/well and stirred with a plate mixer. Luminescence signals were then detected using a multimode plate reader (EnVision Xcite, PerkinElmer). The SF-1 protein degradation rate was calculated from the amount of luminescence (C) in the compound-free group and the amount of luminescence (T) in the compound-added group, based on the following formula.
The obtained data was analyzed using GraphPad Prism9 (GraphPad Software Inc.) or Genedata Screener (Genedata AG) to calculate the concentration that induces 50% degradation of SF-1 (DC50 value).

[2] = test system: NCI-H295R cells; experiment: Proliferation inhibitory action on NCI-H295R (CellTiter-Glo, 7 days); format: cell-based, human; conditions: Homo sapiens, NCI-H295R, 168 h
Protocol: DMSO solutions of each compound were serially diluted with DMSO using a D300e Digital Dispenser (TECAN), and added to a 384-well plate (Thermo Fisher Scientific Inc.). NCI-H295R cells were seeded in a 384-well plate at 2×10^3 cells/40 μL/well and cultured for 7 days in a 37° C., 5% CO2 incubator. […] On the first day of culture (day 0) and the seventh day of culture (day 7), 10 μL/well of CellTiter-Glo (registered trademark) 2.0 Assay (Promega) was added, and the luminescence signal was detected using a multimode plate reader (EnVision, PerkinElmer). The cell proliferation rate was calculated from the luminescence amount on the day of compound addition (CO), the luminescence amount of the compound-free group after 7 days of culture (C7), and the luminescence amount of the compound-added group (T7), based on the following formula.

SMILES	DC50 [1] [µM]	GI50 [2] [µM]
COc1ccc([C@]2(CCN(Cc3ccc(C4=CCC(C(=O)N5CCN(Cc6ccc7c(c6)n(C)c(=O)n7C6CCC(=O)NC6=O)CC5)CC4)c(F)c3F)CC(C)(C)C(F)(F)F)CCOC(C)(C)C2)cc1 (stereo partly drawn) [AV2, 3-[5-({4-[(2′,3′-Difluoro-4′-{[{2-[(4R)-4-(4-methoxyphenyl)-2,2-dimethyltetrahydro-2H-pyran-4-yl]ethyl}(3,3,3-trifluoro-2,2-dimethylpropyl)amino]methyl}-2,3,4,5-tetrahydro[biphenyl]-4-yl)carbonyl]piperazin-1-yl}methyl)-3-methyl-2-oxo-2,3-dihydro-1H-benzimidazol-1-yl]piperidine-2,6-dione]	0.0074	0.061
COc1ccc([C@]2(CCN(Cc3ccc(C4=CCC(CN5CCN(Cc6ccc7c(c6)n(C)c(=O)n7C6CCC(=O)NC6=O)CC5=O)CC4)cc3)CC(C)(C)C(F)(F)F)CCOC(C)(C)C2)cc1 (stereo partly drawn) [AX3, 3-[5-({4-[(4′-{[{2-[(4R)-4-(4-Methoxyphenyl)-2,2-dimethyltetrahydro-2H-pyran-4-yl]ethyl)(3,3,3-trifluoro-2,2-dimethylpropyl)amino]methyl}-2,3,4,5-tetrahydro[biphenyl]-4-yl)methyl]-3-oxopiperazin-1-yl}methyl)-3-methyl-2-oxo-2,3-dihydro-1H-benzimidazol-1-yl]piperidine-2,6-dione]	0.0071	0.061
COc1ccc([C@]2(CCN(Cc3ccc(C4=CCC(C(=O)N[C@H]5C[C@H](Nc6ccc7c(c6)n(C)c(=O)n7C6CCC(=O)NC6=O)C5)CC4)cc3)CC(C)(C)C(F)(F)F)CCOC(C)(C)C2)cc1 (stereo partly drawn) [AY8, N-(Trans-3-{[1-(2,6-dioxopiperidin-3-yl)-3-methyl-2-oxo-2,3-dihydro-1H-benzimidazol-5-yl]amino}cyclobutyl)-4′-{[{2-[(4R)-4-(4-methoxyphenyl)-2,2-dimethyltetrahydro-2H-pyran-4-yl]ethyl}(3,3,3-trifluoro-2,2-dimethylpropyl)amino]methyl}-2,3,4,5-tetrahydro[biphenyl]-4-carboxamide]	0.0073	0.071
COc1ccc([C@]2(CCN(Cc3ccc4nn(C5CC6(CCN(CC(=O)Nc7ccc8c(c7)n(C)c(=O)n8C7CCC(=O)NC7=O)CC6)C5)cc4c3)CC(C)(C)C(F)(F)F)CCOC(C)(C)C2)cc1 (stereo partly drawn) [AZ8, N-[1-(2,6-Dioxopiperidin-3-yl)-3-methyl-2-oxo-2,3-dihydro-1H-benzimidazol-5-yl]-2-[2-(5-{[{2-[(4R)-4-(4-methoxyphenyl)-2,2-dimethyltetrahydro-2H-pyran-4-yl]ethyl}(3,3,3-trifluoro-2,2-dimethylpropyl)amino]methyl}-2H-indazol-2-yl)-7-azaspiro[3.5]nonan-7-yl]acetamide]	0.007	0.028
COc1ccc([C@]2(CCN(Cc3ccc4c(cnn4C4CC5(CCN(CC(=O)Nc6ccc7c(c6)n(C)c(=O)n7C6CCC(=O)NC6=O)CC5)C4)c3)CC(C)(C)C(F)(F)F)CCOC(C)(C)C2)cc1 (stereo partly drawn) [BA6, N-[1-(2,6-Dioxopiperidin-3-yl)-3-methyl-2-oxo-2,3-dihydro-1H-benzimidazol-5-yl]-2-[2-(5-{[{2-[(4R)-4-(4-methoxyphenyl)-2,2-dimethyltetrahydro-2H-pyran-4-yl]ethyl)(3,3,3-trifluoro-2,2-dimethylpropyl)amino]methyl}-1H-indazol-1-yl)-7-azaspiro[3.5]nonan-7-yl]acetamide]	0.0049	0.023
COc1ccc([C@]2(CCN(Cc3ccc(C4=C(F)CC(C(=O)N5CCN(Cc6ccc7c8c6CCCn8c(=O)n7C6CCC(=O)NC6=O)CC5)CC4)cc3)CC(C)(C)C(F)(F)F)CCOC(C)(C)C2)cc1 (stereo partly drawn) [BB7, 3-[7-({4-[(6-Fluoro-4′-{[{2-[(4R)-4-(4-methoxyphenyl)-2,2-dimethyltetrahydro-2H-pyran-4-yl]ethyl)(3,3,3-trifluoro-2,2-dimethylpropyl)amino]methyl}-2,3,4,5-tetrahydro[biphenyl]-4-yl)carbonyl]piperazin-1-yl}methyl)-2-oxo-5,6-dihydro-4H-imidazo[4,5,1-ij]quinolin-1(2H)-yl]piperidine-2,6-dione]	0.009	0.062
COc1ccc([C@]2(CCN(Cc3ccc(C4=CCC(CN5CCN(C(=O)c6ccc7c(n6)n(C)c(=O)n7C6CCC(=O)NC6=O)CC5)CC4)cc3)CC(C)(C)C(F)(F)F)CCOC(C)(C)C2)cc1 (stereo partly drawn) [BC6, 3-[5-({4-[(4′-{[{2-[(4R)-4-(4-Methoxyphenyl)-2,2-dimethyltetrahydro-2H-pyran-4-yl]ethyl}(3,3,3-trifluoro-2,2-dimethylpropyl)amino]methyl}-2,3,4,5-tetrahydro[biphenyl]-4-yl)methyl]piperazin-1-yl}carbonyl)-3-methyl-2-oxo-2,3-dihydro-1H-imidazo[4,5-b]pyridin-1-yl]piperidine-2,6-dione]	0.0062	0.048
COc1ccc([C@]2(CCN(CC(C)(C)C(F)(F)F)C[C@H]3CC[C@H](c4ccc(NC(=O)C5CC(Nc6ccc7c(c6)n(C)c(=O)n7C6CCC(=O)NC6=O)C5)cc4)CC3)CCOC(C)(C)C2)cc1 (stereo partly drawn) [BD6, 3-{[1-(2,6-Dioxopiperidin-3-yl)-3-methyl-2-oxo-2,3-dihydro-1H-benzimidazol-5-yl]amino)-N-[4-(trans-4-{[{2-[(4R)-4-(4-methoxyphenyl)-2,2-dimethyltetrahydro-2H-pyran-4-yl]ethyl}(3,3,3-trifluoro-2,2-dimethylpropyl)amino]methyl}cyclohexyl)phenyl]cyclobutanecarbox amide]	0.003	0.057
COc1ccc([C@]2(CCN(CC3CC=C(c4ccc(NC(=O)C5CC(Nc6ccc7c(c6)n(C)c(=O)n7C6CCC(=O)NC6=O)C5)c(F)c4)CC3)CC(C)(C)C(F)(F)F)CCOC(C)(C)C2)cc1 (stereo partly drawn) [BE5, 3-{[1-(2,6-Dioxopiperidin-3-yl)-3-methyl-2-oxo-2,3-dihydro-1H-benzimidazol-5-yl]amino}-N-(3-fluoro-4′-{[{2-[(4R)-4-(4-methoxyphenyl)-2,2-dimethyltetrahydro-2H-pyran-4-yl]ethyl}(3,3,3-trifluoro-2,2-dimethylpropyl)amino]methyl}-2′,3′,4′,5′-tetrahydro[biphenyl]-4-yl)cyclobutanecarboxamide]	0.0026	0.124
COc1ccc([C@]2(CCN(Cc3ccc(C4=CC[C@H](CN5CCN(C(=O)c6ccc7c8c6CCCn8c(=O)n7[C@H]6CCC(=O)NC6=O)CC5)CC4)cc3)CC(C)(C)C(F)(F)F)CCOC(C)(C)C2)cc1 [BF6, (3S)-3-{7-[(4-{[(4R)-4′-{[{2-[(4R)-4-(4-Methoxyphenyl)-2,2-dimethyltetrahydro-2H-pyran-4-yl]ethyl}(3,3,3-trifluoro-2,2-dimethylpropyl)amino]methyl}-2,3,4,5-tetrahydro[biphenyl]-4-yl]methyl}piperazin-1-yl)carbonyl]-2-oxo-5,6-dihydro-4H-imidazo[4,5,1-ij}quinolin-1(2H)-yl}piperidine-2,6-dione]	0.01	0.075
COc1ccc([C@]2(CCN(Cc3ccc(C4=CC[C@H](CN5CCN(C(=O)c6ccc7c8c6CCCn8c(=O)n7[C@@H]6CCC(=O)NC6=O)CC5)CC4)cc3)CC(C)(C)C(F)(F)F)CCOC(C)(C)C2)cc1 [BG5, (3R)-3-{7-[(4-{[(4R)-4′-{[{2-[(4R)-4-(4-Methoxyphenyl)-2,2-dimethyltetrahydro-2H-pyran-4-yl]ethyl}(3,3,3-trifluoro-2,2-dimethylpropyl)amino]methyl}-2,3,4,5-tetrahydro[biphenyl]-4-yl]methyl}piperazin-1-yl)carbonyl]-2-oxo-5,6-dihydro-4H-imidazo[4,5,1-ij]quinolin-1(2H)-yl}piperidine-2,6-dione]	0.0092	0.084
COc1ccc([C@]2(CCN(Cc3ccc(C4=CCC(C(=O)N5CCC(N(C)c6ccc7c8c6CCCn8c(=O)n7C6CCC(=O)NC6=O)CC5)CC4)c(F)c3)CC(C)(C)C(F)(F)F)CCOC(C)(C)C2)cc1 (stereo partly drawn) [BH5, 3-{7-[{1-[(2′-Fluoro-4′-{[{2-[(4R)-4-(4-methoxyphenyl)-2,2-dimethyltetrahydro-2H-pyran-4-yl]ethyl}(3,3,3-trifluoro-2,2-dimethylpropyl)amino]methyl}-2,3,4,5-tetrahydro[biphenyl]-4-yl)carbonyl]piperidin-4-yl}(methyl)amino]-2-oxo-5,6-dihydro-4H-imidazo[4,5,1-ij]quinolin-1(2H)-yl}piperidine-2,6-dione]	0.0077	0.079
